These results are taken from EPA's ToxValDB 9.5 (doi:10.2903/j.efsa.2008.127r).

In one data set the test system is Apis mellifera. To be noted: acute, mortality.
In another data set the test system is Bibionidae. The settings on record: chronic/long-term; duration: 27 days.
The test system of another data set is Folsomia candida. The settings on record: chronic/long-term; duration: 28 days.
The subject of a further data set is Daphnia magna. The settings on record: chronic/long-term; duration: 21 days; reproduction.

≈ marks a conversion by molar mass, not a printed value.

A word on the NOAEL: it is the highest dose or exposure tested at which no adverse effect was seen. Regarding `CCCCN(CC)c1c([N+](=O)[O-])cc(C(F)(F)F)cc1[N+](=O)[O-]` [Benfluralin], the LD50 in the data set with Apis mellifera (dermal) was over 100 µg/piece; with Apis mellifera (oral, unspecified), over 111 µg/piece; in the data set on Rattus norvegicus (acute, oral, mortality) it was over 5000 mg/kg-day; in the data set with Colinus virginianus (acute, oral, mortality), over 2000 mg/kg-day. The NOEC amounted to 0.231 mg/L in the data set with Bibionidae; 30.8 mg/kg in the data set on Tagia sp. (chronic/long-term, duration: 8 weeks); 49.3 mg/kg-day in the data set on Anas platyrhynchos (reproductive); 5.5 mg/kg with Folsomia candida; 8.6 mg/kg-day in the data set with Colinus virginianus (reproduction developmental); 0.0155 mg/L in the data set on Daphnia magna. The same compound yielded an NOEC with Oncorhynchus mykiss (chronic/long-term, duration: 49 days, growth) of 0.0019 mg/L. Moreover, the NOAEL in the data set on Rattus norvegicus (chronic, duration: 2 years, histopathology: nonneoplastic) stood at 0.5 mg/kg-day; with Rattus norvegicus (reproduction developmental, body weight) it was 5.5 mg/kg-day; with Rattus norvegicus (subchronic, duration: 90 days, oral, histopathology: nonneoplastic), 17 mg/kg-day. Besides, the LC50 with Tagia sp. (acute, duration: 14 days, mortality) was over 1000 mg/kg; in the data set with Anas platyrhynchos (short-term, oral, feed, mortality) it was over 793 mg/kg-day; with Colinus virginianus (acute, oral, diet, mortality), over 909 mg/kg-day; in the data set with Oncorhynchus mykiss (acute, duration: 96 hours, mortality) it was 0.081 µg/mL (≈ 0.242 µM).
